Consider seven molecules from patent US20050222167A1, “9-aminoacridine derivatives and process for the preparation thereof” (priority 2002, published 2005).

≈ marks a conversion by molar mass, not a printed value. Bounds are passed on as bounds.

Series [1] deals with P388 (mouse lymphoid neoplasma cell). Description: Dye exclusion assay, in vitro antitumor effects against animal leukemia cells. Format: cell-based. The conditions noted are these: P388, trypan blue dye exclusion, 48 hours, read-out: concentration showing 50% cell growth inhibition (IC50). The text has this: Experimental 2: In Vitro Antitumor Effects Against Animal Leukemia Cells. A. Material:
Tumor cell lines: P388 (mouse lymphoid neoplasma cell)
B. Method: Dye Exclusion Assay.

The subject of series [2] is A549 (human non-small lung cell). Description: SRB assay, in vitro antitumor effect against human tumor cell lines. The conditions noted are these: 48 hours. Type of series: cell-based. As for the experimental part:
(§1) Experimental 1: In vitro antitumor effect against human tumor cell lines.
(§2) A. Tumor cell lines: A549 (human non-small lung cell)
(§3) • SKOV-3 (human ovarian) • HCT-15 (human colon) • XF-498 (human CNS) • SKMEL-2 (human melanoma) B. Method: SRB Assay • a. Human solid tumor cell lines, A549(non-small lung cell), SKMEL-2(melanoma), HCT-15(colon), SKOV-3(ovarian) and XF-498(CNS) were cultured in 5% CO2 incubators using the RPMI 1640 media containing 10% FBS at 37° C., while with transfer-culturing successively once or twice per week. Cell cultures were dissolved in a solution of 0.25% trysin and 3 mmol CDTA PBS(−) to separate the cells sticked on the culture media. • b. 5 103˜2 104 cells were added into each well of 96-well plate and cultured in 5% CO2 incubator at 37° C. for 24 hours. • c. Each sample drug was dissolved in a little DMSO and diluted with the used medium to a prescribed concentration for experiment, while the final concentration of DMSO was adjusted below 0.5%. • d. Medium of each well cultured for 24 hours as above b. was removed by aspiration. Each 200 μl of drug samples prepared in c. was added into each well and the wells were cultured for 48 hours. Tz (time zero) plates were collected at the point of time drugs were added. • e. According to the SRB assay method, cell fixing with TCA, staining with 0.4% SRB solution, washing with 1% acetic acid and elution of dye with 10 mmol Tris solution were carried out on Tz plates and culture-ended plates, and then, OD values were measured at 520 nm. C. Calculation of Result • a. Time zero (Tz) value was determined with measuring the SRB protein value at the point of time drugs were added. • b. Control value (C) was determined with the OD value of an well untreated with drug. • c. Drug-treated test value (T) was determined with the OD value of drug-treated well. • d. Effects of drugs were estimated with growth stimulation, net growth inhibition and net killing calculated from Tz, C and T values. • e. If T≧Tz, cellular response function was calculated by 100×(T−Tz)/(C−Tz), and, if T<Tz, by 100 (T−Tz)/Tz.

The subject of the next series is XF-498 (human CNS). The description is as above. Format: cell-based. Conditions: XF-498, SRB assay, 48 hours. As for the experimental part: as §1, §2, §3
The test system of a further series is HCT-15 (human colon). The series is described as above. Type of series: cell-based. Conditions: HCT-15, SRB assay, 48 hours. As for the experimental part: as §1, §2, §3
In a further series the test system is SKOV-3 (human ovarian). The description is as above. Type of series: cell-based. Conditions: SK-OV-3, SRB assay, 48 hours. As for the experimental part:
as §1, §2, §3

In another series the test system is SKMEL-2 (human melanoma). Described as above. Type of series: cell-based. Conditions: SK-MEL-2, SRB assay, 48 hours. The procedure: as §1, §2, §3
In a further series the test system is Leukemia P388 cells. Description: In vivo antitumor effects against mouse leukemia P388 cells. Conditions: abdominal cavity, days 1, 5, 9, BDF1 mice with P388. The procedure:
Experimental 3: In Vivo Antitumor Effects Against Mouse Leukemia P388 Cells A. Material of Experiment • BDF1 mice were used. B. Method of Experiment • 1) Leukemia P388 cells being transfer-cultured successively in DBA/2 mouse, were grafted into each mouse of a group comprising 8 mice of 6 week old BDF1 mouse with the dose of 1×10^6 cells/0.1 ml • 2) Sample drugs were dissolved in PBS or suspended in 0.5% tween 80, and then injected into abdominal cavity of mouse at each prescribed concentration on days 1, 5, 9, respectively. • 3) With observation everyday, survival times of tested mice were measured. Antitumor activities was deternimed in such a manner that the increasing ratio (T/C %) of average survival days of drug-treated groups compared with the control group was calculated using the mean survival times of each tested groups.

Series [3] can be described thus: Acute toxicity test (LD50), Litchfield-Wilcoxon method. Conditions: male, mouse, in vivo; iv, ICR mice, observed 14 days. As for the experimental part:
Experimental 4. Acute Toxicity Test (LD50): a) Method: Litchfield-Wilcoxon Method.
6-week-old ICR mice (male 30 2.0 g) were fed freely with solid feed and water at room temperature, […], and at humidity 60 5%. Sample drugs were injected into the abdominal cavities of mice. Each group comprised 6 mice. […] LD50 value was calculated by Litchfield-wilcoxon method.

On to `CCc1nc(OC)c(NC(=O)N2CCN(c3cc(F)cc(F)c3)CC2)cc1C(=O)NC(C)C(=O)Nc1cc(CO)cc(Nc2c3ccccc3nc3ccccc23)c1` (stereo not shown) [Example 4, 4-(3,5-difluorophenyl)piperazine-1-carboxylic acid (5-{1-[3-(acridine-9-yl-amino)-5-hydroxymethylphenylcarbamoyl]-ethylcarbamoyl}-6-ethyl-2-methoxypyridine-3-yl)amide], for which, in series [1], the IC50 was 0.9 µg/mL (≈ 1.14 µM).
Take `N.N.[Cl][Pt][Cl]` [Cisplatin, cisplatin, reference compound]: the ED50 in series [2] was determined as 0.81 µg/mL; in the series on XF-498 (human CNS) it was 0.77 µg/mL; in the series with HCT-15 (human colon) it was 3.03 µg/mL; in the series on SKOV-3 (human ovarian), 0.71 µg/mL; with SKMEL-2 (human melanoma), 0.71 µg/mL.
Regarding `CCc1nc(OC)c(NC(=O)N2CCN(c3cc(C)cc(C)c3)CC2)cc1C(=O)Nc1cc(CO)cc(Nc2c3ccccc3nc3ccccc23)c1` [Example 19, 4-(3,5-dimethylphenyl)-piperazine-1-carboxylic acid{5-[3-(acridine-9-yl-amino)-5-hydroxymethylphenylcarbamoyl]-6-ethyl-2-methoxy-pyridine-3-yl}amide], the ED50 in series [2] was found to be 0.21 µg/mL (≈ 0.296 µM); with XF-498 (human CNS), 0.38 µg/mL (≈ 0.535 µM); in the series on HCT-15 (human colon) it was 0.27 µg/mL (≈ 0.38 µM); in the series with SKOV-3 (human ovarian), 0.17 µg/mL (≈ 0.239 µM); in the series on SKMEL-2 (human melanoma) it was 0.18 µg/mL (≈ 0.254 µM).
With `CCCc1nc(OC)c(NC(=O)N2CCN(c3cc(OC)cc(OC)c3)CC2)cc1C(=O)NC(C)C(=O)Nc1cc(CO)cc(Nc2c3ccccc3nc3ccccc23)c1` (stereo not shown) [Example 9, 4-(3,5-dimethoxyphenyl)piperazine-1-carboxylic acid (5-{1-[3-(acridine-9-yl-amino)-5-hydroxymethylphenylcarbamoyl]-ethylcarbamoyl}-2-methoxy-6-propylpyridine-3-yl)-amide], the IC50 in series [1] was found to be 0.4 µg/mL (≈ 0.484 µM). For the same molecule, the ED50 in series [2] turned out to be 0.24 µg/mL (≈ 0.29 µM); in the series on XF-498 (human CNS) it was 0.15 µg/mL (≈ 0.181 µM); with HCT-15 (human colon), 0.15 µg/mL (≈ 0.181 µM); in the series on SKOV-3 (human ovarian), 0.19 µg/mL (≈ 0.23 µM); in the series with SKMEL-2 (human melanoma), 0.15 µg/mL (≈ 0.181 µM).
`CCc1nc(OC)c(NC(=O)N2CCN(c3cc(C)cc(C)c3)CC2)cc1C(=O)NC(C)C(=O)Nc1cc(CO)cc(Nc2c3ccccc3nc3ccccc23)c1` (stereo not shown) [Example 2, 4-(3,5-dimethylphenyl)piperazine-1-carboxylic acid (5-{1-[3-(acridine-9-yl-amino)-5-hydroxymethylphenylcarbamoyl]-ethylcarbamoyl}-6-ethyl-2-methoxypyridine-3-yl)amide]: the IC50 in series [1] was 0.3 µg/mL (≈ 0.384 µM). Further, the ED50 is 0.12 µg/mL (≈ 0.154 µM) in series [2]; 0.18 µg/mL (≈ 0.23 µM) in the series with XF-498 (human CNS); 0.19 µg/mL (≈ 0.243 µM) in the series on HCT-15 (human colon); 0.12 µg/mL (≈ 0.154 µM) with SKOV-3 (human ovarian); 0.01 µg/mL (≈ 0.0128 µM) in the series on SKMEL-2 (human melanoma). For the same molecule, the “MST” value with Leukemia P388 cells (Dose 25 mg/kg) was greater than 60.0 days; with Leukemia P388 cells (Dose 50 mg/kg) it was greater than 60.0 days; in the series with Leukemia P388 cells (Dose 100 mg/kg) it was 22.0 days. For the same molecule, the “T/C (%)” value was greater than 545.5% in the series with Leukemia P388 cells (Dose 25 mg/kg), greater than 545.5% in the series on Leukemia P388 cells (Dose 50 mg/kg) and 200.0% in the series with Leukemia P388 cells (Dose 100 mg/kg). This molecule had an LD50 at 14 days in series [3] of 80 mg/kg.
In the case of `CCc1nc(OC)c(NC(=O)N2CCN(c3cc(OC)cc(OC)c3)CC2)cc1C(=O)NC(C)C(=O)Nc1cc(CO)cc(Nc2c3ccccc3nc3ccccc23)c1` (stereo not shown) [Example 3, 4-(3,5-dimethoxyphenyl)piperazine-1-carboxylic acid (5-{1-[3-(acridine-9-yl-amino)-5-hydroxymethylphenylcarbamoyl]-ethylcarbamoyl}-6-ethyl-2-methoxypyridine-3-yl)amide], the IC50 in series [1] stood at 1 µg/mL (≈ 1.23 µM). For the same molecule, the ED50 was 0.12 µg/mL (≈ 0.148 µM) in series [2]; 0.18 µg/mL (≈ 0.221 µM) in the series with XF-498 (human CNS); 0.13 µg/mL (≈ 0.16 µM) in the series with HCT-15 (human colon); 0.19 µg/mL (≈ 0.234 µM) with SKOV-3 (human ovarian); 0.03 µg/mL (≈ 0.0369 µM) in the series with SKMEL-2 (human melanoma). The “MST” value with Leukemia P388 cells (Dose 25 mg/kg) was 17.0 days; with Leukemia P388 cells (Dose 50 mg/kg), greater than 60.0 days; in the series with Leukemia P388 cells (Dose 100 mg/kg), 11.6 days. Moreover, the “T/C (%)” value in the series on Leukemia P388 cells (Dose 25 mg/kg) is 154.5%; in the series with Leukemia P388 cells (Dose 50 mg/kg) it was greater than 545.5%; in the series with Leukemia P388 cells (Dose 100 mg/kg), 100.0%. Further, in series [3], the LD50 at 14 days stood at 80 mg/kg.
Take `CCc1nc(OC)c(NC(=O)N2CCN(c3cc(C)cc(C)c3)CC2)cc1C(=O)NC(C)C(=O)Nc1cc(CO)cc(Nc2c3ccccc3nc3c(C)c(C)ccc23)c1` (stereo not shown) [Example 16, 4-(3,5-dimethylphenyl)piperazine-1-carboxylic acid (5-{1-[3-(3,4-dimethylacridine-9-yl-amino)-5-hydroxymethylphenylcarbamoyl]-ethylcarbamoyl}-6-ethyl-2-methoxypyridine-3-yl)amide]: the IC50 in series [1] was 0.3 µg/mL (≈ 0.371 µM). Moreover, the ED50 in series [2] amounted to 0.08 µg/mL (≈ 0.0989 µM); in the series with XF-498 (human CNS) it was 0.09 µg/mL (≈ 0.111 µM); in the series on HCT-15 (human colon), 0.07 µg/mL (≈ 0.0865 µM); in the series on SKOV-3 (human ovarian), 0.14 µg/mL (≈ 0.173 µM); with SKMEL-2 (human melanoma) it was 0.02 µg/mL (≈ 0.0247 µM).
